| melting point [°C] | SMILES |
| --- | --- |
| 116 to 118 | O=C(O)c1ccc(OC(F)(F)F)c(OC2CCCC2)c1 |
| > 268 | Oc1ccc(Nc2ncc3ncc(-c4ccc(O)cc4)cc3n2)cc1 |
| 149 | COc1cc(NC(=S)NC(=O)c2ccccc2)cc(-c2ccccc2)c1 |
| 211 to 212 | CC(=O)n1c(=O)n(-c2ccc3c(c2)OCO3)c2ncccc21 |
| 228 to 230 | Cc1ccc(NC(=O)N(C)Cc2cccc3c2CN(C2CCC(=O)NC2=O)C3=O)cc1C (stereo unspecified) |
| 86 | CC(=O)OCCCCN1CCC(CNC(=O)[C@@H]2CCCN2S(=O)(=O)c2ccc(Cl)c(COc3cccc4c(-n5ccnc5)cc(C)nc34)c2Cl)CC1 |
| 103 to 105 | CC(C)(C)OC(=O)N1CCn2c(cc3ccccc32)C1 |
| 210 to 213 | CC(=O)Oc1ccc2nc(NC(=O)Nc3ccccc3)sc2c1 |
| 120 to 121 | COc1cc(C(C)C)ccc1C1COc2c(C)c(C)c(N)c(C)c21 (stereo unspecified) |
| 108 | CC(C)(C)CC(C)(C)Nc1cc(Cl)ccc1[N+](=O)[O-] |
| 243 to 244 | Cc1cc2c(C(=O)C3=C(O)C4CCC(C4)C3=O)ccc(S(C)=O)c2o1 (stereo unspecified) |
| 99 to 103 | CC(C)(C)OC(=O)Nc1cc(N2CCC(OC3CCCCO3)C2)c(-c2ccc(F)cc2)cc1NC(=O)CC(=O)c1cccc(-n2ccnc2)c1 (stereo unspecified) |
| 173 to 176 | Cn1cc(C(=O)CCl)cc1C(=O)c1ccc([N+](=O)[O-])cc1 |
| 116 to 118 | Cc1c2n(c3ccccc13)C(=O)C(C)(Cc1ncn(C(c3ccccc3)(c3ccccc3)c3ccccc3)c1C)CC2 (stereo unspecified) |
| 68 to 70 | COC(=O)c1ccccc1N(C)C(=O)c1ccc(OC)nc1 |
| 149 to 150 | COC(=O)C1=C(C)NC(C)=C(C(=O)OC)C1c1ccc(OCC(=O)NCCO[N+](=O)[O-])c(OC)c1 |
| 138 to 139 | Cc1cnc(-c2cc3c(OC[C@@H](O)CN4CCC(c5ccc6ccccc6c5)CC4)cccc3s2)o1 |
| 218 to 220 | CCOC(=O)CNC(=O)[C@H](Cc1ccc(O)cc1)NC(=O)[C@H](CO)NC(=O)[C@H](Cc1c[nH]c2ccccc12)NC(=O)[C@H](Cc1c[nH]cn1)NC(=O)[C@@H]1CCC(=O)N1 |
| 213 to 215 | Cc1c(N2CCC(C(N)c3cccnc3)C2)c(F)c(N)c2c(=O)c(C(=O)O)cn(C3CC3F)c12 (stereo unspecified) |
| 166 to 168 | CN1CCN(CCCn2c(NC(=O)c3ccc(Cl)c(Cl)c3)nc3ccccc32)CC1 |
| 141 to 143 | COc1ccc(N2CC(CN3CCC(O)(c4ccccc4)CC3)OC2=O)cc1 (stereo unspecified) |
| 90 to 91 | CCCSc1sc(C(=O)OCC)c2c1-c1nn(C)cc1CC2 |
| 166 to 168 | Cc1c(NCCO)c(F)cc2c(=O)c(C(=O)O)cn(-c3cc(N)c(F)cc3F)c12 |

| melting point [°C] | SMILES |
| --- | --- |
| 66 to 68 | Cc1oc(-c2ccccc2)nc1CCCCCOC(C)(C)C(=O)O |
| 76 to 78 | Cc1cccc(OCCOS(N)(=O)=O)c1 |
| 233 to 235 | O=C(Nc1nc(-c2ccco2)c(C(=O)C2CCOCC2)s1)c1ccc(Cl)nc1 |
| 185 to 186 | COc1ccc(C2=NN(c3cccc(C(=O)O)c3)C(=O)[C@H]3CC=CC[C@@H]23)cc1OC (relative stereo) |
| 156 to 158 | CCCN1CC(c2ccc(C)cc2)=C(c2ccc(S(C)(=O)=O)cc2)C1=O |
| 94 to 95 | N#CCCNC(=S)C1=CC(CF)(CF)Oc2ccc(C(F)(F)C(F)(F)C(F)(F)F)cc21 |
| 137 | CCCc1cc(-c2ccc(F)c3ccccc23)nc(N)n1 |
| 104 to 106 | CCCCCC(=O)CCn1ccnc1 |
| 181 to 183 | CNC(=O)Nc1ccc(C2=NN(C(=O)NC)C(C)Cc3cc4c(cc32)OCO4)cc1 (stereo unspecified) |
| 172 to 175 | Cc1cccc(NC(=O)CN2CCN(c3ccccc3[N+](=O)[O-])CC2)c1 |
| 62 to 64 | Cc1cc(C)c(C2C(=O)CC(CC3CCOC3)CC2=O)c(C)c1 (stereo unspecified) |
| 132 to 134 | O=C(O)[C@H](Cc1ccccc1)NS(=O)(=O)c1ccc(Cl)cc1 |
| 164 | COc1cccc(-c2nc(Cl)nc(Nc3ccc(O)cc3)n2)c1 |
| 94 to 95 | CCCCCc1ccc2cc(O)ccc2c1 |
| 246 to 249 | O=C(O)c1ccc2c(c1)CCCS2(=O)=O |
| 89 to 93.5 | CCOC1=NCCNC(c2ccccc2)=C1 |
| 80 to 81 | CCCCc1ccc(C(=O)NCCCCCCO)cc1 |
| 108 to 109 | COC(=O)CS(=O)CCCCCn1nc(-c2ccccc2)c(-c2ccccc2)c1-c1ccccc1 (stereo unspecified) |
| 118 to 119 | CC(=O)Oc1ccc(CCC(=O)Nc2cc(C)c(O)c(C)c2)cc1OC(C)=O |
| 162 | Nc1ccc(-c2cc(C(F)(F)F)nc(-c3ccc(C(F)(F)F)cc3)n2)cc1 |
| 209 to 212 | O=C(O)c1cc([N+](=O)[O-])cc2c1CCCC2 |
| 198 to 200 | CC(=O)Nc1cc2c(cc1[N+](=O)[O-])OC(C)(C)[C@@H](Br)[C@@H]2O (relative stereo) |
| 263 to 265 | O=C(O)C1C=Nc2c(cccc2[N+](=O)[O-])C1=O (stereo unspecified) |

| melting point [°C] | SMILES |
| --- | --- |
| > 260 | O=C1c2ccccc2C(=O)c2oc(-c3ccccc3F)nc21 |
| 82.3 to 83.9 | CC(C)(C)OC(=O)N1CCC(C=C(Br)Br)CC1 |
| 206 to 208 | Cc1nc2cccc(CNC(=O)OC(C)(C)C)c2c(=O)n1C1CCC(=O)NC1=O (stereo unspecified) |
| 160 to 165 | CCCC1(CCC)c2cc(-c3ccc(Br)s3)ccc2-c2ccc(-c3ccc(Br)s3)cc21 |
| 153 to 155 | CC(C)c1cccc(C(C)C)c1NC(=O)CC(=O)C(c1ccccc1)c1ccccc1 |
| 95 to 98 | CCOC(=O)c1ncoc1-c1cnc(Cl)c(Cl)c1 |
| 153 to 154 | Cc1ccc(NC(=O)c2ccc(CN3CCN(C)CC3)c(C(F)(F)F)c2)cc1-c1ccc2ccncc2c1 |
| 113 to 115 | Cc1cnc(-n2ccc(C(F)(F)F)n2)nc1Oc1csc(C(F)(F)F)c1 |
| 153 to 155 | COCC(O)COc1ccc2nc(S(N)(=O)=O)sc2c1 (stereo unspecified) |
| 173 to 175 | COc1cc[nH]c1C=C1C(=O)Nc2cccc(C#CC(O)c3ccc(OCC(=O)OC(C)(C)C)cc3)c21 (racemic) |
| 82 to 84 | Cc1ccccc1S(=O)(=O)NC(=O)n1sc(Cl)cc1=O |
| 165 to 167 | CC(C)c1ccc2nc3ccc(C(=O)NCCCCn4ccnc4)cn3c(=O)c2c1 |
| 300 | COc1cccc2c(=O)c(C#N)c(N)oc12 |
| 155 to 156 | Cc1[nH]cnc1CON1C(=O)c2ccccc2C1=O |
| 123 to 129 | O=c1c2c(Cl)cc(Cl)cc2n(Cc2ccccc2)c(=O)n1Cc1cccc(Cl)c1 |
| 106 to 107 | N#Cc1ccc2c(c1)OC(c1ccccc1)(c1ccccc1)O2 |
| 120 to 122 | CCOC(=O)CCC1(NC(=O)c2ccc(Cl)c(Cl)c2)C(=O)N(CCCc2ccccc2)c2ccccc21 (stereo unspecified) |
| 113 to 116 | O=C(NN1CCCCC1)C1CN(c2ccc(Cl)cc2)C(c2ccc(Cl)cc2Cl)=N1 (stereo unspecified) |
| 180 to 182 | COC(=O)c1ccc2c(c1)N(C(=O)c1ccc(-c3ccccc3C(F)(F)F)c(C)c1)Cc1cccn1C2 |
| 268 to 269 | CCCNC(=O)C(C)NC(=O)C(C)NC(=O)C(C)NC(=O)OCc1ccccc1 (stereo unspecified) |
| 91 to 92 | C[Si](C)(Cc1ccccc1)CN1C(=O)c2ccccc2C1=O |
| 138 to 139 | C#Cc1ccc(C(=C2CC(C)(C)CC(C)(C)C2)c2ccc(O)cc2)cc1 |
| 228 | Cn1cnnc1C(O)(c1ccc(I)cc1)c1ccc2c(c1)c(-c1cccc(Cl)c1)nc1nnnn12 (stereo unspecified) |

| melting point [°C] | SMILES |
| --- | --- |
| 190 to 192 | Cc1c(C(=O)O)cc(Cl)c2c1C(=O)CCS2 |
| > 250 | O=C(O)C1=CSC2C(=Cc3cc4c(s3)CCOC4)C(=O)N12 (stereo unspecified) |
| 38 to 40 | BrCc1cccc(OCc2ccccc2)c1 |
| 127 | CC(C)NC(=O)n1cc(Cl)c(-c2cc(Cl)cc(Cl)c2)n1 |
| 134 to 135 | CCc1cc(Cl)cc(S(N)(=O)=O)c1N |
| 138 to 139 | Cc1nn(-c2ccc(C(F)(F)F)cn2)cc1COc1ccc(OCC(=O)O)cc1 |
| 163 | Clc1cccc(-c2onc3ccc(Br)cc23)c1 |
| 217 to 218 | Cc1cc2c(cc1Cl)CCN2C(=O)Nc1cccnc1 |
| 41 to 44 | O=[N+]([O-])c1ccc(OCC2CC2)c(C(F)(F)F)c1 |
| 87 to 88 | CCc1cn(C[C@@H](C)O)c2ccc(F)c(Cl)c12 |
| 265 to 267 | O=C(Nc1cc(-c2nc(-c3ccccc3)c[nH]2)ccn1)c1ccccc1 |
| 102 | CC(C)(C)c1ccc(OCC(N)CO)cc1 (stereo unspecified) |
| 159 to 161 | CCOC(=O)c1cc(-n2c(=O)c(C)c(C)n(C)c2=O)ccc1Cl |
| 166 to 168 | O=C(NC1CCCCC1)Oc1ccc(Oc2ccccc2)cc1 |
| 182 to 184 | Cc1nc(C)c(Cl)c(NCc2ccc(OCCn3c([N+](=O)[O-])cnc3C)cn2)n1 |
| 54 | COC(=O)CCNC(=O)C(=Cc1ccccc1)CSC(C)=O |
| 81 to 83 | C#C[C@]1(C)CCc2c(C)c(O)c(C)c(C)c2O1 |
| 92.7 to 93.7 | CCN(CCCCC12CC3CC(CC(C3)C1)C2)C(=O)NCCCc1ccncc1 |
| 82 to 84 | CCCC(=O)NC[C@@H]1C[C@H]1c1cccn2nc(C)cc12 (relative stereo) |
| 60 to 65 | Cc1ccc(C(=O)N2CCC(CCN3C(=O)CCc4c(CC5SC(=O)NC5=O)cccc43)CC2)cc1 (stereo unspecified) |
| 112 to 114 | O=C(O)CC[C@H]1O[C@@H](c2ccccc2)c2ccccc2N(Cc2ccccc2)C1=O (relative stereo) |
| 177 to 178 | COc1nc(OC)nc(Oc2cccc3c2C(=S)OC3C)n1 (stereo unspecified) |
| 88 to 90 | CCCCCc1c(C(C)C)nc(C(C)C)c(CO)c1-c1cccc(C)c1 |

| SMILES | melting point [°C] |
| --- | --- |
| C[C@](O)(COc1ccc(C#N)c(F)c1)C(=O)Nc1ccc(C#N)c(C(F)(F)F)c1 | 124 to 125 |
| Oc1ccc2c(CCCCN3CC=C(c4cccs4)CC3)c[nH]c2c1 | 181 |
| Cc1cc(Oc2ccc(C(F)(F)F)cc2Cl)cc(C)c1NC(=O)C1C(=O)N(C)C(=S)N(C)C1=O | 171 to 173 |
| CCCCCCc1cc2c(s1)NC(=O)CN=C2c1ccccc1Cl | 141 to 143 |
